Positions count from the first letter of the chain named. The source made the active and inactive calls. The calls are words filed in the database; no cut-off is given here.

Series [1] is described as follows: Stability of compound at pH 5.8 assessed as compound remaining measured after 1 hr by 1H NMR spectroscopy. Type of series: physicochemical. As to conditions: buffer, read-out: Stability.
The nature of series [2]: Stability of compound at pH 7 assessed as compound remaining measured after 4 days by 1H NMR spectroscopy. Format: physicochemical. Particulars: buffer, time 4 day, read-out: Stability.
Series [3] deals with T1, Lysosomal acid glucosylceramidase (Homo sapiens) (UniProt P04062).
T1 sequence (whole entry): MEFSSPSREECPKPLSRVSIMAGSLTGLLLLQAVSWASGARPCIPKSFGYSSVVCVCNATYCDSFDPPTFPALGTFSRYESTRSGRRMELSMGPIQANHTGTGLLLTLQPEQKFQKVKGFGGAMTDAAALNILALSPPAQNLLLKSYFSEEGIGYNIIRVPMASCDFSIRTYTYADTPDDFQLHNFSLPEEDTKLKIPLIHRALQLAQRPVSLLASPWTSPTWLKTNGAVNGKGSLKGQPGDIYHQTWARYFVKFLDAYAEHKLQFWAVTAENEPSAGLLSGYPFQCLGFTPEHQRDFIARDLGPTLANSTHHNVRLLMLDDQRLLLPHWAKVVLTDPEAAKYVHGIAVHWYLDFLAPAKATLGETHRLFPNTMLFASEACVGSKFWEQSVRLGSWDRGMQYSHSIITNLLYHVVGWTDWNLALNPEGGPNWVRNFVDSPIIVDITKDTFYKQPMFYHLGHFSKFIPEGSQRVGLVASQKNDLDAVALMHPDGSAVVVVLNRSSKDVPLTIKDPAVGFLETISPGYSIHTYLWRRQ
As to the kind of experiment: Inhibition of lysosomal GCase in human leucocytes using 4-methylumbelliferyl-beta-D-glucopyranoside as substrate at 1 mM incubated for 1 hr by fluorescence based assay relative to control. Type of series: cell-based. As to conditions: Leucocyte.

For series [4], the system named is Lysosomal acid glucosylceramidase (Homo sapiens), P04062 [UNDEFINED MUTATION]. The series is described as follows: Modulation of GCase N370S/RecNcil mutant in Gaucher patient-derived human fibroblasts assessed as GCase rescue at 10 to 100 uM incubated for 4 days by fluorescence based lysed cell assay. As to conditions: Fibroblast, dose 10-100 µM, time 4.0 day.

In series [5] the test system is T2, Lysosomal acid glucosylceramidase (Homo sapiens), P04062 [L483P].
T2 sequence (whole entry): T1 sequence (whole entry) with L483P
The series is described as follows: Modulation of GCase L444P/L444P mutant in Gaucher patient-derived human fibroblasts assessed as GCase rescue at 10 to 100 uM incubated for 4 days by fluorescence based lysed cell assay. As to conditions: Fibroblast, dose 10-100 µM, time 4.0 day.

Series [6] is described as follows: Antioxidant activity assessed as DPPH radical scavenging activity at 400 umol measured after 10 mins relative to control. Type of series: functional. Particulars: dose 400.0 µmol. In general terms: Loss of DPPH colour is used to gauge radical scavenging.
Series [7] is described as follows: Stability of compound at pH 5.8 assessed as compound hydrolysis measured after 6 days by 1H NMR spectroscopy. Format: physicochemical. Particulars: buffer, pH 5.8, 144 h; time 6 day.
Series [8] has as its target T3, Lysosomal acid glucosylceramidase (Homo sapiens, UniProt P04062).
T3 sequence (P04062 whole entry): T1 sequence (whole entry)
As to the kind of experiment: Non-competitive inhibition of lysosomal GCase in human leucocytes using 4-methylumbelliferyl-beta-D-glucopyranoside as substrate incubated for 1 hr by fluorescence based assay. Type of series: cell-based, Leucocyte.

Series [9] deals with Lysosomal acid glucosylceramidase (Homo sapiens), P04062 [UNDEFINED MUTATION]. As to the kind of experiment: Modulation of GCase N370S/RecNcil mutant in Gaucher patient-derived human fibroblasts assessed as fold increase in GCase rescue at 100 uM incubated for 4 days by fluorescence based lysed cell assay relative to control. Particulars: Fibroblast, filed as modulator, time 4.0 day.

The target in series [10] is T1, Lysosomal acid glucosylceramidase (Homo sapiens). As to the kind of experiment: Inhibition of lysosomal GCase in human leucocytes using 4-methylumbelliferyl-beta-D-glucopyranoside as substrate at 1 mM measured immediately by fluorescence based assay relative to control. Type of series: cell-based. Particulars: Leucocyte.
For series [11] the target is unchanged. As to the kind of experiment: Inhibition of lysosomal GCase in human leucocytes using 4-methylumbelliferyl-beta-D-glucopyranoside as substrate at 1 mM measured after 12 hrs by fluorescence based assay relative to control. Type of series: cell-based. Particulars: Leucocyte.
Series [12] shares this target. As to the kind of experiment: Inhibition of lysosomal GCase in human leucocytes using 4-methylumbelliferyl-beta-D-glucopyranoside as substrate at 1 mM measured 24 hrs by fluorescence based assay relative to control. Type of series: cell-based. Particulars: Leucocyte.
The target is the same in series [13]. As to the kind of experiment: Inhibition of lysosomal GCase in human leucocytes using 4-methylumbelliferyl-beta-D-glucopyranoside as substrate at 1 mM measured 36 hrs by fluorescence based assay relative to control. Type of series: cell-based. As to conditions: Leucocyte.
In series [14] the test system is Lysosomal acid glucosylceramidase (Homo sapiens), P04062 [UNDEFINED MUTATION]. The series is described as follows: Modulation of GCase N370S/RecNcil mutant in Gaucher patient-derived human fibroblasts using 4-methylumbelliferyl beta-D-glucopyranoside as substrate assessed as GCase rescue at 10 to 100 uM preincubated for 4 days followed by compound washout and substrate addition measured after 2 hrs by fluorescence based intact cell enzyme assay. As to conditions: Fibroblast, dose 10-100 µM, time 4.0 day.

Series [15] deals with T2, Lysosomal acid glucosylceramidase (Homo sapiens), P04062 [L483P]. As to the kind of experiment: Modulation of GCase L444P/L444P mutant in Gaucher patient-derived human fibroblasts assessed as fold increase in GCase rescue at 50 uM incubated for 4 days by fluorescence based lysed cell assay relative to control. Particulars: Fibroblast, filed as modulator, time 4.0 day.

Series [16] can be described thus: Antioxidant activity assessed as DPPH radical scavenging activity at 200 umol measured after 10 mins relative to control. Particulars: dose 200.0 µmol. Format: functional.
The subject of series [17] is Lysosomal acid glucosylceramidase (Homo sapiens), P04062 [UNDEFINED MUTATION]. As to the kind of experiment: Modulation of GCase N370S/RecNcil mutant in Gaucher patient-derived human fibroblasts assessed as fold increase in GCase rescue at 50 uM incubated for 4 days by fluorescence based lysed cell assay relative to control. Particulars: Fibroblast, filed as modulator, time 4.0 day.

Series [18] has the same test system. The series is described as follows: Modulation of GCase N370S/RecNcil mutant in Gaucher patient-derived human fibroblasts assessed as fold increase in GCase rescue at 10 uM incubated for 4 days by fluorescence based lysed cell assay relative to control. Particulars: Fibroblast, filed as modulator, time 4.0 day.
In series [19] the test system is T2, Lysosomal acid glucosylceramidase (Homo sapiens), P04062 [L483P]. The series is described as follows: Modulation of GCase L444P/L444P mutant in Gaucher patient-derived human fibroblasts assessed as GCase rescue at 10 uM incubated for 4 days by fluorescence based lysed cell assay. As to conditions: Fibroblast, filed as modulator, time 4.0 day.
Series [20] in a line: Antioxidant activity assessed as inhibition of DPPH radical scavenging activity measured after 10 mins relative to control. Format: functional.
Series [21] deals with Lysosomal acid glucosylceramidase (Homo sapiens), P04062 [UNDEFINED MUTATION]. The series is described as follows: Modulation of GCase N370S/RecNcil mutant in Gaucher patient-derived human fibroblasts assessed as fold increase in GCase rescue at 20 uM incubated for 4 days by fluorescence based lysed cell assay relative to control. Particulars: Fibroblast, filed as modulator, time 4.0 day.

Series [22] concerns the target T1, Lysosomal acid glucosylceramidase (Homo sapiens). As to the kind of experiment: Non-competitive inhibition of lysosomal GCase in human leucocytes using 4-methylumbelliferyl-beta-D-glucopyranoside as substrate assessed as reduction in apparent Vmax incubated for 1 hr by fluorescence based assay. Particulars: Leucocyte. Format: cell-based.
For series [23] the target is unchanged. The series is described as follows: Non-competitive inhibition of lysosomal GCase in human leucocytes using 4-methylumbelliferyl-beta-D-glucopyranoside as substrate assessed as unchanged Km incubated for 1 hr by fluorescence based assay. As to conditions: Leucocyte. Format: cell-based.
For series [24] the target is unchanged. The series is described as follows: Inhibition of lysosomal GCase in human leucocytes using 4-methylumbelliferyl-beta-D-glucopyranoside as substrate incubated for 1 hr by Lineweaver-burk plot analysis. As to conditions: Leucocyte. Type of series: cell-based.
Series [25] deals with Lysosomal acid glucosylceramidase (Homo sapiens), P04062 [UNDEFINED MUTATION]. As to the kind of experiment: Modulation of GCase N370S/RecNcil mutant in Gaucher patient-derived human fibroblasts using 4-methylumbelliferyl beta-D-glucopyranoside as substrate assessed as fold increase in GCase rescue at 30 uM preincubated for 4 days followed by compound washout and substrate addition measured after 2 hrs by fluorescence based intact cell enzyme assay relative to control. Particulars: Fibroblast, filed as modulator, time 4.0 day.

Series [26] has as its system T2, Lysosomal acid glucosylceramidase (Homo sapiens), P04062 [L483P]. The series is described as follows: Modulation of GCase L444P/L444P mutant in Gaucher patient-derived human fibroblasts assessed as fold increase in GCase rescue at 100 uM incubated for 4 days by fluorescence based lysed cell assay relative to control. Particulars: Fibroblast, filed as modulator, time 4.0 day.

The test system is the same in series [27]. The series is described as follows: Modulation of GCase L444P/L444P mutant in Gaucher patient-derived human fibroblasts using 4-methylumbelliferyl beta-D-glucopyranoside as substrate assessed as fold increase in GCase rescue at 30 uM preincubated for 4 days followed by compound washout and substrate addition measured after 2 hrs by fluorescence based intact cell enzyme assay relative to control. As to conditions: Fibroblast, filed as modulator, time 4.0 day.

Regarding `COc1cc(C2OC[C@H](CCN3C[C@@H](O)C(O)[C@H](O)C3)O2)ccc1O` (some centres not stated), the remaining at 1 h in series [1] is 82%. The remaining at 96 h in [2] came to 61%. In addition, the inhibition (in general, how much of the control response was suppressed) in series [3] was determined as 70%. The outcome in series [4] and in [5] was inactive. Further, the Activity in series [6] amounted to 14%.

Consider `O=[N+]([O-])c1ccc(C2OC[C@H](CCN3C[C@@H](O)C(O)[C@H](O)C3)O2)cc1` (some centres not stated), for which the remaining at 1 h in [1] is above 95%. The remaining at 96 h in series [2] is above 95%. Also, the Stability entry in series [7] is listed as “Stable”. In [3], this molecule came in with an inhibition of 77%. The IC50 (in general, the concentration needed to halve the response being measured) in series [8] amounted to 300 µM. Also, the fold change (FC) in series [9] is 1.6. Moreover, the outcome in [5] was inactive.

Take `COc1cc(/C=C/C2OC[C@H](CCN3C[C@@H](O)C(O)[C@H](O)C3)O2)ccc1O` (some centres not stated): the remaining at 1 h in series [1] amounted to 87%. Further, the remaining at 96 h in series [2] turned out to be 72%. Also, the inhibition in series [3] came to 84%; in [10], 75%; in series [11], 69%; in [12], 55%; in [13] it was 47%. Further, the fold change (FC) in series [9] is 1.5; in [15], 1.3. For the same molecule, in series [14], the result was inactive. For the same molecule, the Activity in series [16] turned out to be 67%.

On to `CCCCCCCCCCCCOC1OC[C@H](CCN2C[C@@H](O)C(O)[C@H](O)C2)O1` (some centres not stated), for which the fold change (FC) in series [15] was 2.15; in [17] it was 1.92; in series [18], 2.06; in [19] it was 1.24.

Take `OC[C@H]1CNC[C@@H](O)[C@@H]1O`: the fold change (FC) in series [18] is 2.

For `Cc1cc(C(C)(C)C)c(O)c(C(C)(C)C)c1`, the inhibition in series [20] was above 95%.

Regarding `CCCCOC1OCC(CNC(=S)N2C[C@H](O)[C@@H](O)[C@H](O)[C@H]2CO)O1` (some centres not stated), the result in series [5] was inactive. Besides, the fold change (FC) in series [21] stood at 1.5.

Regarding `OC1[C@H](O)CN(CC[C@H]2COC(OCc3ccc(-c4ccccc4)cc3)O2)C[C@H]1O` (some centres not stated), the fold change (FC) in series [9] was 1.61; in [15] it was 2.11; in [19] it was 2.03.

On to `OC1[C@H](O)CN(CC[C@H]2COC(c3ccc(Br)cc3)O2)C[C@H]1O` (some centres not stated), for which the remaining at 1 h in [1] was above 95%. In series [2], the remaining at 96 h was above 95%. In series [7], the Stability result is reported as “Stable”. In addition, the inhibition in series [3] was 75%; in series [24], “Active; The Secondary Plot Was Concave Upward, Rather Than Linear, Thus Confirming That Inhibitory Effect Arises From The Binding Of More Than One Molecule Of Compound On Enzyme Surface; Not Attributable To A Cooperativity Phenomenon”; in [10], 80%; in series [11], 77%; in series [12], 80%; in series [13], 76%. Besides, the IC50 in series [8] was determined as 100 µM. The inhibition result in [22] and in series [23] was “Active” in each case. Further, the fold change (FC) came out at 1.83 in [9], 1.46 in series [25], 1.56 in [26] and 1.26 in [27].

For the molecule `Nc1c(Br)cc(Br)cc1CN[C@H]1CC[C@H](O)CC1`, in series [15], the fold change (FC) was found to be 1.3.

The values above are taken from ChEMBL document CHEMBL6134842, “Acetal functionalized iminosugars for targeting β-glucocerebrosidase modulation” (Eur J Med Chem, 2025).
